Values after ≈ are worked out from the molar mass of the structure shown.
Experiments:
[1] = system: S. suis 1088563; experiment: Resistance to antibiotics (MIC-based class); type: cell-based, Streptococcus suis; conditions: strain 1088563; resistant if MIC ≥ 400 μg/ml
Source text: (§1) Table 1 Strains of S. suis used in this study, their characteristics and susceptibility to S. suis 65. | column: Resistance to antibiotics ^1 / Erythromycin; Resistance to antibiotics ^1 / Tetracycline

[2] = system: S. suis P1/7; experiment: Resistance to antibiotics (MIC-based class); type: cell-based, Streptococcus suis; conditions: strain P1/7; resistant if MIC ≥ 400 μg/ml
Source text: as §1

[3] = system: S. suis 31533; experiment: Resistance to antibiotics (MIC-based class); type: cell-based, Streptococcus suis; conditions: strain 31533; resistant if MIC ≥ 400 μg/ml
Source text: as §1

[4] = system: S. suis 1054471; experiment: Resistance to antibiotics (MIC-based class); type: cell-based, Streptococcus suis; conditions: strain 1054471; resistant if MIC ≥ 400 μg/ml
Source text: as §1

[5] = system: S. suis LPH4; experiment: Resistance to antibiotics (MIC-based class); type: cell-based, Streptococcus suis; conditions: strain LPH4; resistant if MIC ≥ 400 μg/ml
Source text: as §1

[6] = system: S. suis MNCM01; experiment: Resistance to antibiotics (MIC-based class); type: cell-based, Streptococcus suis; conditions: strain MNCM01; resistant if MIC ≥ 400 μg/ml
Source text: as §1

[7] = system: S. suis MNCM06; experiment: Resistance to antibiotics (MIC-based class); type: cell-based, Streptococcus suis; conditions: strain MNCM06; resistant if MIC ≥ 400 μg/ml
Source text: as §1

[8] = system: S. suis 65; experiment: Antibiotic susceptibility of S. suis 65 (broth microdilution MIC); type: cell-based; conditions: Streptococcus suis; S. suis 65, THB, 96-well plates, 24 h at 37°C, growth recorded visually; three independent experiments
Experimental: The susceptibility of S. suis 65 to antibiotics (amoxicillin, ceftiofur, and penicillin G) was determined as follows. Briefly, a 24-h bacterial culture in THB was diluted in fresh broth medium to obtain an optical density at 660 nm (OD660) of 0.2. Equal volumes (100 μl) of bacteria and serial dilutions of antibiotics in THB were mixed in the wells of 96-well plates. Wells with no bacteria or no antibiotics were used as controls. Following a 24-h incubation at 37°C, bacterial growth was recorded visually. Minimal inhibitory concentration (MIC) values (μg/ml) were expressed as the lowest concentration at which no growth occurred. The MIC values were determined in three independent experiments.

| SMILES | Resistance to antibiotics [1] | Resistance to antibiotics [2] | Resistance to antibiotics [3] | Resistance to antibiotics [4] | Resistance to antibiotics [5] | Resistance to antibiotics [6] | Resistance to antibiotics [7] | MIC [8] [ng/mL] |
| --- | --- | --- | --- | --- | --- | --- | --- | --- |
| CC[C@H]1OC(=O)[C@H](C)[C@@H](O[C@H]2C[C@@](C)(OC)[C@@H](O)[C@H](C)O2)[C@H](C)[C@@H](O[C@@H]2O[C@H](C)C[C@H](N(C)C)[C@H]2O)[C@](C)(O)C[C@@H](C)C(=O)[C@H](C)[C@@H](O)[C@]1(C)O [Erythromycin] | Resistant (A strain was considered resistant if the MIC was ≥ 400 μg/ml) | Sensitive (A strain was considered resistant if the MIC was ≥ 400 μg/ml) | Sensitive (A strain was considered resistant if the MIC was ≥ 400 μg/ml) | Sensitive (A strain was considered resistant if the MIC was ≥ 400 μg/ml) | Resistant (A strain was considered resistant if the MIC was ≥ 400 μg/ml) | Resistant (A strain was considered resistant if the MIC was ≥ 400 μg/ml) | Resistant (A strain was considered resistant if the MIC was ≥ 400 μg/ml) |  |
| CN(C)[C@@H]1C(O)=C(C(N)=O)C(=O)[C@@]2(O)C(O)=C3C(=O)c4c(O)cccc4[C@@](C)(O)[C@H]3C[C@@H]12 [Tetracycline] | Resistant (A strain was considered resistant if the MIC was ≥ 400 μg/ml) | Sensitive (A strain was considered resistant if the MIC was ≥ 400 μg/ml) | Sensitive (A strain was considered resistant if the MIC was ≥ 400 μg/ml) | Resistant (A strain was considered resistant if the MIC was ≥ 400 μg/ml) | Resistant (A strain was considered resistant if the MIC was ≥ 400 μg/ml) | Resistant (A strain was considered resistant if the MIC was ≥ 400 μg/ml) | Resistant (A strain was considered resistant if the MIC was ≥ 400 μg/ml) |  |
| CC1(C)S[C@@H]2[C@H](NC(=O)[C@H](N)c3ccc(O)cc3)C(=O)N2[C@H]1C(=O)O [amoxicillin] |  |  |  |  |  |  |  | 4.9 (≈ 0.0134 µM) |
| CO/N=C(\C(=O)N[C@@H]1C(=O)N2C(C(=O)O)=C(CSC(=O)c3ccco3)CS[C@H]12)c1csc(N)n1 [ceftiofur] |  |  |  |  |  |  |  | 9.8 (≈ 0.0187 µM) |
| CC1(C)S[C@@H]2[C@H](NC(=O)Cc3ccccc3)C(=O)N2[C@H]1C(=O)O [penicillin G] |  |  |  |  |  |  |  | 9.8 (≈ 0.0293 µM) |

From paper PMC4692507, “Purification and Characterization of Suicin 65, a Novel Class I Type B Lantibiotic Produced by Streptococcus suis” (PLoS ONE, 2015)
